Reference: ChEMBL document CHEMBL6182848, “Phenyl-benzyl-ureas with pyridazinone motif: Potent soluble epoxide hydrolase inhibitors with enhanced pharmacokinetics and efficacy in a paclitaxel-induced neuropathic pain model” (Eur J Med Chem, 2025)
The source made the active and inactive calls.

How the values were obtained:
[1] = Metabolic stability in human liver microsomes assessed as half life measured up to 60 mins in presence of NADPH by LC-MS/MS analysis; type: ADME, Microsome
[2] = Metabolic stability in mouse liver microsomes assessed as half life measured up to 60 mins in presence of NADPH by LC-MS/MS analysis; type: ADME, Microsome
[3] = Metabolic stability in human liver microsomes assessed as intrinsic clearance measured up to 60 mins in presence of NADPH by LC-MS/MS analysis; type: ADME, Microsome; details: 1 h
[4] = Half life in male CD-1 mouse at 2 mg/kg, iv measured up to 24 hrs by LC-MS/MS analysis; type: ADME, organism-based; details: in vivo
[5] = C0 in male CD-1 mouse at 2 mg/kg, iv measured up to 24 hrs by LC-MS/MS analysis; type: ADME, organism-based; details: in vivo
[6] = MRT in male CD-1 mouse at 2 mg/kg, iv measured up to 24 hrs by LC-MS/MS analysis; type: ADME, organism-based; details: in vivo
[7] = Clearance in male CD-1 mouse at 2 mg/kg, iv measured up to 24 hrs by LC-MS/MS analysis; type: ADME, organism-based; details: in vivo
[8] = Volume of distribution at steady state in male CD-1 mouse at 2 mg/kg, iv measured up to 24 hrs by LC-MS/MS analysis; type: ADME, organism-based; details: in vivo, read-out: Vdss
[9] = AUC (0 to infinity) in male CD-1 mouse at 2 mg/kg, iv measured up to 24 hrs by LC-MS/MS analysis; type: ADME, organism-based; details: in vivo
[10] = Half life in male CD-1 mouse at 10 mg/kg, po measured up to 24 hrs by LC-MS/MS analysis; type: ADME, organism-based; details: in vivo
[11] = Cmax in male CD-1 mouse at 10 mg/kg, po measured up to 24 hrs by LC-MS/MS analysis; type: ADME, organism-based; details: in vivo
[12] = AUC (0 to infinity) in male CD-1 mouse at 10 mg/kg, po measured up to 24 hrs by LC-MS/MS analysis; type: ADME, organism-based; details: in vivo
[13] = MRT in male CD-1 mouse at 10 mg/kg, po measured up to 24 hrs by LC-MS/MS analysis; type: ADME, organism-based; details: in vivo
[14] = Oral bioavailability in male CD-1 mouse at 10 mg/kg measured up to 24 hrs by LC-MS/MS analysis; type: ADME, organism-based; details: in vivo
[15] = Permeability coefficient of compound in PBS at pH 7.4 at 10 uM incubated for 16 hrs PAMPA-BBB assay
Mus musculus [16] = test: Analgesic activity in PTX-induced neuropathic pain male C57BL/6 mouse model assessed as improvement in mechanical paw withdrawal threshold at 10 mg/kg, po measured up to 4 hrs by Von Frey test; type: functional, organism-based
Mus musculus [17] = test: Analgesic activity in PTX-induced neuropathic pain male C57BL/6 mouse model assessed as improvement in mechanical paw withdrawal threshold at 30 mg/kg, po measured up to 4 hrs by Von Frey test; type: functional, organism-based
Mus musculus [18] = test: Analgesic activity in PTX-induced neuropathic pain male C57BL/6 mouse model assessed as improvement in mechanical paw withdrawal threshold at 10 to 30 mg/kg, po measured for 2 to 4 hrs by Von Frey test; type: functional, organism-based; details: dose 10-30 mg/kg, time 2-4 hrs
PBMC [19] = test: Anti-inflammatory activity in LPS-induced human PBMC assessed as reduction in TNF-alpha level pre-incubated with compound for 30 mins followed by LPS stimulation and measured after 6 hrs by ELISA; type: functional, cell-based; details: dose 1-1000 nM, time 390.0 min
PBMC [20] = test: Anti-inflammatory activity in LPS-induced human PBMC assessed as reduction in IL-6 level pre-incubated with compound for 30 mins followed by LPS stimulation and measured after 6 hrs by ELISA; type: functional, cell-based; details: dose 1-1000 nM
[21] = Cytotoxicity against human PBMC at 10 uM incubated for 24 hrs by MTT assay; type: toxicity, cell-based
Mus musculus [22] = test: Analgesic activity in PTX-induced neuropathic pain male C57BL/6 mouse model assessed as improvement in mechanical paw withdrawal threshold at 30 mg/kg, po administered for 14 days by Von Frey test; type: functional, organism-based; details: time 14.0 day
[23] = biological target: T1, Bifunctional epoxide hydrolase 2 (Homo sapiens, UniProt P34913); test: Inhibition of human recombinant sEH expressed in baculovirus infected Sf9 cells using PHOME as substrate preincubated for 10 mins followed by substrate addition measured after 60 mins by fluorescence based assay; type: cell-based
T1 sequence (P34913 whole entry): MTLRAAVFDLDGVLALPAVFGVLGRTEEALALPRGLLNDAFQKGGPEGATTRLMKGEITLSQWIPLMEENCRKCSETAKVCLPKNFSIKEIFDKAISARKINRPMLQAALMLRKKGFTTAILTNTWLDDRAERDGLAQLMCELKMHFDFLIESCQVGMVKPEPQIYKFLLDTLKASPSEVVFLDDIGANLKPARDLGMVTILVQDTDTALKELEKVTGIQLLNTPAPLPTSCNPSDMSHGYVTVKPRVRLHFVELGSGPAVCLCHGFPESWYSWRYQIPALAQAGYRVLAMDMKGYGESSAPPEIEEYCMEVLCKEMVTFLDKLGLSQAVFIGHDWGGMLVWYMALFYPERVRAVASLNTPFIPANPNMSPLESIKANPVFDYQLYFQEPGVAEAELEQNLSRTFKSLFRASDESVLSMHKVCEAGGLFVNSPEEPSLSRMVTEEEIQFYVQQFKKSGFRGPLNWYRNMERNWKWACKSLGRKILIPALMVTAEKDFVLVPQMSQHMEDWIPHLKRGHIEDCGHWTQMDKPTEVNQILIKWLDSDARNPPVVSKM

Mus musculus [24] = test: Analgesic activity in PTX-induced neuropathic pain male C57BL/6 mouse model assessed as improvement in mechanical paw withdrawal threshold at 60 mg/kg, po administered for 14 days by Von Frey test; type: functional, organism-based; details: time 14.0 day
Mus musculus [25] = test: Analgesic activity in PTX-induced neuropathic pain male C57BL/6 mouse model assessed as improvement in mechanical paw withdrawal threshold at 60 mg/kg, po measured up to 4 hrs by Von Frey test; type: functional, organism-based
[26] = Toxicity in PTX-induced neuropathic pain male C57BL/6 mouse model assessed as change in body weight at 60 mg/kg/day, po treated for 14 days; type: organism-based; details: in vivo, 336 h, time 14 day

## O=C(NCc1ccccc1OC(F)(F)F)Nc1ccc(-c2ccc(=O)[nH]n2)cc1
[1]
  half-life: > 185 min
[2]
  half-life: > 185 min
[3]
  CLH: < 7.5 µL/min/mg
[4]
  half-life: 193 min
[5]
  C0 at 24 h: 4640 ng/mL
[6]
  MRT: 3.5 h
[7]
  clearance: 4.8 mL/min/kg
[8]
  Vd: 1.02 L/kg
[9]
  AUC(0-inf): 7630 ng·h/mL
[10]
  half-life: 146 min
[11]
  Cmax: 4700 ng/mL
[12]
  AUC(0-inf): 29700 ng·h/mL
[13]
  MRT: 5.23 h
[14]
  bioavailability: 78%
[15]
  Papp at 16 h, 10 µM: 3.83 ×10⁻⁶ cm/s
Mus musculus [16]
  Activity: inactive
Mus musculus [17]
  Activity: Active
Mus musculus [18]
  Activity: Active
PBMC [19]
  Activity: Dose-dependent-effect
PBMC [20]
  Activity: Dose-dependent-effect
[21]
  Activity: Non-toxic
Mus musculus [22]
  Activity: Active; Effect Was Lower Than Gabapentin With Chronic Use, But Its Efficacy Remained Stable

## O=C(NCc1cccc(C(F)(F)F)c1)Nc1ccc(-c2ccc(=O)[nH]n2)cc1
[23]
  IC50: ≥ 100 nM

## O=C(NCc1ccccc1C(F)(F)F)Nc1ccc(-c2ccc(=O)[nH]n2)cc1
[1]
  half-life: > 185 min
[2]
  half-life: > 185 min
[3]
  CLH: < 7.5 µL/min/mg

## O=C(NCc1ccc(C(F)(F)F)cc1)Nc1ccc(-c2ccc(=O)[nH]n2)cc1
[23]
  IC50: ≥ 100 nM

## COc1ccc(CNC(=O)Nc2ccc(-c3ccc(=O)[nH]n3)cc2)c(C(F)(F)F)c1
[1]
  half-life: > 185 min
[2]
  half-life: 23.6 min
[3]
  CLH: < 7.5 µL/min/mg

## O=C(Cc1ccccc1C(F)(F)F)Nc1ccc(-c2ccc(=O)[nH]n2)cc1
[23]
  IC50: > 100 nM

## O=C(NCc1ccccc1F)Nc1ccc(-c2ccc(=O)[nH]n2)cc1
[23]
  IC50: ≥ 100 nM

## CN(Cc1cnc2nc(N)nc(N)c2n1)c1ccc(C(=O)N[C@@H](CCC(=O)O)C(=O)O)cc1 [METHOTREXATE]
[15]; 16 h, 10 µM
  Kp: 0.001 ×10⁻⁶ cm/s

## O=C(NCc1ccccc1)Nc1ccc(-c2ccc(=O)[nH]n2)cc1
[23]
  IC50: > 100 nM

## NCC1(CC(=O)O)CCCCC1 [GABAPENTIN]
Mus musculus [24]
  Activity: Active; Compound Effect Noticeably Decreased With Prolonged Administration
Mus musculus [25]
  Activity: Active; Exhibited Consistent And Prolonged Effect
[26]
  Activity: Non-toxic

## Cn1nc(-c2ccc(NC(=O)NCc3ccccc3C(F)(F)F)cc2)ccc1=O
[1]
  half-life: > 185 min
[2]
  half-life: > 185 min
[3]
  CLH: < 7.5 µL/min/mg
